Holding throughout (assay type): biochemical
One assay deals with Tyk2-JH1JH2 (Homo sapiens (Human), UniProt P29597, C1142A/C936A). Nature of the assay: Enzymatic inhibition assay (RapidFire HTMS), Tyk2. To be noted: 50 μM ATP, 200 μM substrate. The text has this: (§1) LC/MS grade Water and Acetonitrile (ACN), were purchased from HoneyWell, Burdick & Jackson (Muskegon, Mich., USA). Dimethylsulfoxide 99.8% (DMSO) and Trifluoroacetic Acid 99.5% (TFA) were purchased from EMD Chemical (Gibbstown, N.J., USA). Adenosine triphosphate (ATP), 4-Morpholinepropanesulfonic acid (MOPS), Magnesium chloride (MgCl2), ethylenediaminetetraacetic acid (EDTA), dithiothreitol (DTT), formic acid >95% (FA) and Tween-20 were purchased from Sigma (St Louis, Mo., USA). 384-well polypropylene plates, Cat #781280 were purchased from Greiner (Monroe, N.C.), RapidFire™ cartridge A C4 Column (Agilent Technologies, Santa Clara, Calif.).
(§2) The HTMS experiments were performed in positive ionization mode on a RapidFire 300 instrument (Agilent Technologies, Santa Clara, Calif.), coupled with an ABSiex QTrap 4000 system with an Electrospray Ionization source (RF-MS) (Concord, ON, Canada). […] The entire system was operated using the RapidFire software interfaced with Analyst software for the mass spectrometer.
(§3) 11-point dosing series were made for each compound by serially diluting 1:3 or 1:4 in DMSO, with point 12 being a DMSO control. From the serial dilution plates, sample was transferred to a 384 wells assay plate (#781280, Greiner, Monroe, N.C.) using Labcyte Echo (Sunnyvale, Calif.), or Biosero ATS (San Diego, Calif.). The compounds were tested in duplicate. Column 12 was used for positive controls, and column 24 contained negative controls with no enzyme added. A compound from our internal collection, with inhibitory activity for JAK isoforms, was used as a reference compound. The final concentration of DMSO was ≤0.25% in a 20 μL reaction. […] The Tyk2 enzyme was pre-incubated with 2 mM ATP for 30 min prior to the reaction initiation. Immediately after the addition of the enzyme to the reaction mixture, the plate was centrifuged at 1000 rpm for 1 minute and incubated at 25° C. for 45 minutes for JAK 3 and 90 minutes for JAK1, JAK2 and Tyk2. The reaction was quenched by the addition of 20 μL of 0.5% TFA containing 0.15 μM of internal standard peptide using Multidrop Combi reagent dispenser (Thermo Scientific, Waltham, Mass.). […] After the quench, the assay plate was centrifuged at 3000 rpm for 3 minutes and sealed with pierceable aluminum foil (Cat #06644-001, Agilent) using a PlateLoc (Agilent Technologies, Santa Clara, Calif.). The plates then were transferred on to the RapidFire for the MS analysis. Compound inhibition was assessed by a decrease of the phosphorylated product levels in sample wells compared to the non-inhibited enzyme reaction.
(§4) The sample analysis on the RapidFire was performed using a mobile phase A consisting of Water/TFA/FA (100:0.01:0.1, v/v/v), a mobile phase B consisting of ACN/Water/TFA/FA (80:20:0.01:0.1, v/v/v). […] The samples were aspirated directly from the 384 assay plate and delivered onto RF-MS microscale solid-phase C4 extraction cartridge (Type A). The undesired component such as salt, cofactor, detergent and large protein were washed out and the retained analytes (substrate, product and IS) were coeluted directly onto the ABSiex Qtrap 4000 system.

A further assay deals with JAK3-JH1JH2 (Homo sapiens (Human), UniProt P52333). Nature of the assay: Enzymatic inhibition assay (RapidFire HTMS), JAK3. To be noted: 150 μM ATP, 40 μM substrate.
Source text: as §1, §2
as §3, with “compound.” for “compound. The final concentration of DMSO was ≤0.25% in a 20 μL reaction.”
as §4

The next assay addresses JAK1-JH1JH2 (Homo sapiens (Human), UniProt P23458). As to the kind of experiment: Enzymatic inhibition assay (RapidFire HTMS), JAK1. Conditions: 12.5 μM ATP, 200 μM substrate; read-out: JAK1-JH2JH1 IC50.
Source text: as §1, §2, §3, §4

Sequence of JAK1-JH1JH2 (P23458 574-1154): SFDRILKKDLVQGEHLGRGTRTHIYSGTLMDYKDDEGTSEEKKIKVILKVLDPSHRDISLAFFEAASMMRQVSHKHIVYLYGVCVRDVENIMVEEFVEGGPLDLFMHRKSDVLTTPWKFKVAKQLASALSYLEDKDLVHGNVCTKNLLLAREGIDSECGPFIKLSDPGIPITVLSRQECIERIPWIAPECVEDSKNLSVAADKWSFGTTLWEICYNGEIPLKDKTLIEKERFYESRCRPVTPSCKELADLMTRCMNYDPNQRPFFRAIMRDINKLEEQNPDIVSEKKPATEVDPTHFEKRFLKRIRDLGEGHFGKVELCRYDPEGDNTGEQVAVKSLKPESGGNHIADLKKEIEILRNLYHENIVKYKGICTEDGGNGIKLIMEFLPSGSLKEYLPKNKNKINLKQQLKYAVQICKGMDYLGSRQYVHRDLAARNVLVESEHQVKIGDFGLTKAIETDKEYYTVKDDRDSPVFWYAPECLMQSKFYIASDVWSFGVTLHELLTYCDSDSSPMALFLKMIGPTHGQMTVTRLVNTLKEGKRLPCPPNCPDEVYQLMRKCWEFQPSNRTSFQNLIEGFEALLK
Sequence of JAK3-JH1JH2 (P52333 512-1124): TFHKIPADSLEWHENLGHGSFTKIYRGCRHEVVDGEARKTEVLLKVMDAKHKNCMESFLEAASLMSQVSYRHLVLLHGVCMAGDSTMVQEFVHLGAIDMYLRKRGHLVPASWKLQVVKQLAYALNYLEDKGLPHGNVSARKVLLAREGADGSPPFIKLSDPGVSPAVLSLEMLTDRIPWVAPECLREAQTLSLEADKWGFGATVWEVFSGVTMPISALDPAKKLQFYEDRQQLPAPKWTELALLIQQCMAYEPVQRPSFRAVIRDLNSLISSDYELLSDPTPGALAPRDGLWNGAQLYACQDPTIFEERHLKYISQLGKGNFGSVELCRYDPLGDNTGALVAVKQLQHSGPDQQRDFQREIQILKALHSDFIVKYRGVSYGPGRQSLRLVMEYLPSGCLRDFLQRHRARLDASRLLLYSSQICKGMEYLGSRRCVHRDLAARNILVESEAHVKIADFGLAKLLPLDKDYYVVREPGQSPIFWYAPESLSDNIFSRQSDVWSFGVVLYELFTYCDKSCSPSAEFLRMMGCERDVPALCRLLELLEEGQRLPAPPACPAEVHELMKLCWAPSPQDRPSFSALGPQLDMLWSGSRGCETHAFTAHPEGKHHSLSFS
Sequence of Tyk2-JH1JH2 (P29597 580-1182 C936A/C1142A): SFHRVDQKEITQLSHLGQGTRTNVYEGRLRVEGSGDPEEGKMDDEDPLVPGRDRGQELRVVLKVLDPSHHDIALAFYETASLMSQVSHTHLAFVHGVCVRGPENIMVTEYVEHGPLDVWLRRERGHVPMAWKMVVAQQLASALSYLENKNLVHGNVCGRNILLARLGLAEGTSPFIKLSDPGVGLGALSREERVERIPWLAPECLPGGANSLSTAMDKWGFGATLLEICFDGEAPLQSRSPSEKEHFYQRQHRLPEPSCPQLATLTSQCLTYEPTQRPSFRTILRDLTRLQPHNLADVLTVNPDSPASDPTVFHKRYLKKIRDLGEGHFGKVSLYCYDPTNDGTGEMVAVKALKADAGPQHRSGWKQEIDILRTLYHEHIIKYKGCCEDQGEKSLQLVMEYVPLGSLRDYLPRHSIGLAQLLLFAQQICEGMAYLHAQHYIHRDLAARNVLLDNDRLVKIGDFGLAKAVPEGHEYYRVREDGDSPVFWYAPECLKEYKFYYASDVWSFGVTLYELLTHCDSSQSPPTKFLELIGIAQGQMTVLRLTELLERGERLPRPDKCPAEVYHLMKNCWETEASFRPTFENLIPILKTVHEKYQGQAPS

A word on the IC50: it is the concentration that gives 50% inhibition. Turning to `N#CC[C@H]1CC[C@H](n2c(CC(=O)N3CCC(C(F)(F)F)CC3)nc3cnc4[nH]ccc4c32)CC1` [Ex. 6, 2-((1r,4r)-4-(2-(2-Oxo-2-(4-(trifluoromethyl)piperidin-1-yl)ethyl)imidazo[4,5-d]pyrrolo[2,3-b]pyridin-1(6H)-yl)cyclohexyl)acetonitrile], the IC50 against Tyk2-JH1JH2 worked out at 0.4 nM; against JAK3-JH1JH2, 49.4 nM.
For `N#CC[C@H]1CC[C@H](n2c(-c3cocn3)nc3cnc4[nH]ccc4c32)CC1` [Ex. 11, 2-((1r,4r)-4-(2-(Oxazol-4-yl)imidazo[4,5-d]pyrrolo[2,3-b]pyridin-1(6H)-yl)cyclohexyl)acetonitrile], the IC50 on Tyk2-JH1JH2 was determined as 1.2 nM; at JAK1-JH1JH2, 0.1 nM; against JAK3-JH1JH2, 33.5 nM.
In the case of `CC(C)(CO)CNC(=O)Cc1nc2cnc3[nH]ccc3c2n1[C@H]1CC[C@H](CC#N)CC1` [Ex. 15, 2-(1-((1r,4r)-4-(Cyanomethyl)cyclohexyl)-1,6-dihydroimidazo[4,5-d]pyrrolo[2,3-b]pyridin-2-yl)-N-(3-hydroxy-2,2-dimethylpropyl)acetamide], the IC50 at JAK1-JH1JH2 was found to be 0.1 nM; against JAK3-JH1JH2 it was 54.5 nM.
For the compound `N#CC[C@H]1CC[C@H](n2c(-c3cn[nH]n3)nc3cnc4[nH]ccc4c32)CC1` [Ex. 16, 2-((1r,4r)-4-(2-(2H-1,2,3-Triazol-4-yl)imidazo[4,5-d]pyrrolo[2,3-b]pyridin-1(6H)-yl)cyclohexyl)acetonitrile], the IC50 was determined as 3.7 nM against Tyk2-JH1JH2, 0.1 nM on JAK1-JH1JH2 and 37.7 nM at JAK3-JH1JH2.
In the same order, the values of `N#CC[C@H]1CC[C@H](n2c(CC(=O)NCC34CC5CC(CC(O)(C5)C3)C4)nc3cnc4[nH]ccc4c32)CC1` [Ex. 21, 2-(1-((1r,4r)-4-(Cyanomethyl)cyclohexyl)-1,6-dihydroimidazo[4,5-d]pyrrolo[2,3-b]pyridin-2-yl)-N-(((1S,3R,5R,7S)-3-hydroxyadamantan-1-yl)methyl)acetamide] are 3.5 nM, 0.1 nM and 55.1 nM.
For `N#CC[C@H]1CC[C@H](n2c(Cc3ccn[nH]3)nc3cnc4[nH]ccc4c32)CC1` [Ex. 25, 2-((1r,4r)-4-(2-((1H-Pyrazol-5-yl)methyl)imidazo[4,5-d]pyrrolo[2,3-b]pyridin-1(6H)-yl)cyclohexyl)acetonitrile] the same measures were 5.3 nM, 0.1 nM and 77.9 nM.
In the same order, the values of `N#CC[C@H]1CC[C@H](n2c(CC(=O)NCc3ccccc3)nc3cnc4[nH]ccc4c32)CC1` [Ex. 48, N-Benzyl-2-(1-((1r,4r)-4-(cyanomethyl)cyclohexyl)-1,6-dihydroimidazo[4,5-d]pyrrolo[2,3-b]pyridin-2-yl)acetamide] are 11.2 nM, 0.2 nM and 193 nM.
On to `N#CC[C@H]1CC[C@H](n2c(CC(=O)NC34CC5CC(CC(O)(C5)C3)C4)nc3cnc4[nH]ccc4c32)CC1` [Ex. 52, 2-(1-((1r,4r)-4-(Cyanomethyl)cyclohexyl)-1,6-dihydroimidazo[4,5-d]pyrrolo[2,3-b]pyridin-2-yl)-N-((1s,3r,5R,7S)-3-hydroxyadamantan-1-yl)acetamide], for which the IC50 came to 4.4 nM against Tyk2-JH1JH2, 0.2 nM on JAK1-JH1JH2 and 57.5 nM on JAK3-JH1JH2.
For `N#CC[C@H]1CC[C@H](n2c(CC(=O)NCC3CCCCC3)nc3cnc4[nH]ccc4c32)CC1` [Ex. 69, 2-(1-((1r,4r)-4-(Cyanomethyl)cyclohexyl)-1,6-dihydroimidazo[4,5-d]pyrrolo[2,3-b]pyridin-2-yl)-N-(cyclohexylmethyl)acetamide] the same measures were 15.6 nM, 0.3 nM and 111 nM.
In the same order, the values of `N#CC[C@H]1CC[C@H](n2c(CNC(=O)Nc3ccccc3)nc3cnc4[nH]ccc4c32)CC1` [Ex. 70, 1-((1-((1r,4r)-4-(Cyanomethyl)cyclohexyl)-1,6-dihydroimidazo[4,5-d]pyrrolo[2,3-b]pyridin-2-yl)methyl)-3-phenylurea] are 9.4 nM, 0.4 nM and 108 nM.
In the same order, the values of `C[Si](C)(C)C1CCC(c2nc3cnc4[nH]ccc4c3n2[C@H]2CC[C@H](CC#N)CC2)CC1` (stereo partly drawn) [Ex. 100, 2-((1r,4r)-4-(2-(4-(Trimethylsilyl)cyclohexyl)imidazo[4,5-d]pyrrolo[2,3-b]pyridin-1(6H)-yl)cyclohexyl)acetonitrile] are 2280 nM, 72 nM and above 6250 nM.
Consider `N#CC[C@H]1CC[C@H](n2c(CN/C(Cc3ccccc3)=N\O)nc3cnc4[nH]ccc4c32)CC1` [Ex. 103, (EZ)—N-((1-((1r,4r)-4-(Cyanomethyl)cyclohexyl)-1,6-dihydroimidazo[4,5-d]pyrrolo[2,3-b]pyridin-2-yl)methyl)-N-hydroxy-2-phenylacetimidamide], for which the IC50 stood at 11.3 nM against Tyk2-JH1JH2, 0.5 nM on JAK1-JH1JH2 and 459 nM against JAK3-JH1JH2.
For `N#CC[C@H]1CC[C@H](n2c(CC(=O)Nc3ccc(C(O)(C(F)(F)F)C(F)(F)F)cc3)nc3cnc4[nH]ccc4c32)CC1` [Ex. 104, 2-(1-((1r,4r)-4-(Cyanomethyl)cyclohexyl)-1,6-dihydroimidazo[4,5-d]pyrrolo[2,3-b]pyridin-2-yl)-N-(4-(1,1,1,3,3,3-hexafluoro-2-hydroxypropan-2-yl)phenyl)acetamide], the results for the IC50 on Tyk2-JH1JH2, at JAK1-JH1JH2 and against JAK3-JH1JH2 were 12.6 nM, 0.5 nM and 298 nM, respectively.
In the same order, the values of `CC(C)(O)CNC(=O)c1nc2cnc3[nH]ccc3c2n1[C@H]1CC[C@H](CC#N)CC1` [Ex. 117, 1-((1r,4r)-4-(Cyanomethyl)cyclohexyl)-N-(2-hydroxy-2-methylpropyl)-1,6-dihydroimidazo[4,5-d]pyrrolo[2,3-b]pyridine-2-carboxamide] are 17.3 nM, 0.6 nM and 273 nM.
In the same order, the values of `N#CC[C@H]1CC[C@H](n2c(-c3cn[nH]c3)nc3cnc4[nH]ccc4c32)CC1` [Ex. 123, 2-((1r,4r)-4-(2-(1H-pyrazol-4-yl)imidazo[4,5-d]pyrrolo[2,3-b]pyridin-1(6H)-yl)cyclohexyl)acetonitrile] are 11.6 nM, 0.7 nM and 146 nM.
In the case of `N#CC[C@H]1CC[C@H](n2c(CO/N=C(\N)CN3CCCCC3)nc3cnc4[nH]ccc4c32)CC1` [Ex. 153, (Z*)—N′-((1-((1r,4r)-4-(Cyanomethyl)cyclohexyl)-1,6-dihydroimidazo[4,5-d]pyrrolo[2,3-b]pyridin-2-yl)methoxy)-2-(piperidin-1-yl)acetimidamide], the IC50 at JAK1-JH1JH2 was 3.7 nM; against JAK3-JH1JH2 it was 512 nM.

Values taken from patent US10981911B2, “Imidazopyrrolopyridine as inhibitors of the JAK family of kinases” (Janssen Pharmaceutica NV, priority 2016, dated 2021).
